In one series the target is protein phosphatase-2A1 (Homo sapiens, UniProt P67775). Description: Activation of protein phosphatase-2A1 in intact Jurkat cells (DEAE Sepharose fractions of extracts assayed). In kind it is cell-based. The settings on record: Jurkat cells treated with 1000 nM for 1 hour, 0.001% DMSO. More on the design: Protein phosphatase-2A1 purified from CD^4+ T cells as described in materials and method; endogenous in cells; host or cells: Jurkat cells; enzyme purified by DEAE Sepharose, Sephacryl S-300 HR and poly-L-lysine Agarose. The method, then: Jurkat cells (a CD^4+ T cell line) were grown in RPMI 1640 and 10% (v/v) fetal bovine serum. 1600 ml of cell suspension (10^6 cells per ml) were split into two flasks and one was treated with SYRAPRO-2000 for 1 hour (circles) while the other was not (squares). The cells from each flask were collected by centrifugation, washed with 50 mM Imidazole-Cl pH 7.2 plus 150 mM NaCl and then homogenized in homogenization buffer as described in materials and methods. The homogenate from each flask was chromatographed on a DEAE Sepharose column and the eluted fractions were assayed for type 2A protein phosphatase activity as described in materials and method. Similar results were obtained in 3 independent experiments.
The effect of synthesized SYRAPRO-2000 on protein phosphatase-2A1 can be determined in intact cells. Jurkat cells, a human CD^4+ T transformed cell line. Jurkat cells are grown in RPMI 1680 medium supplemented with 5% (v/v) fetal bovine serum and antibiotics and treated or not with 1 μM of SYRAPRO-2000 for 60 minutes. Following treatment with SYRAPRO-2000, cells are harvested by centrifugation, washed and homogenized. A cell extract is prepared by centrifugation and loaded onto a DEAE Sepharose column which is washed and eluted with a liner gradient of buffer plus 0 mM NaCl to buffer plus 400 mM NaCl. […]

The nature of series [1]: Cell viability (tryphan blue) and cell death of Jurkat cells. In kind it is cell-based, human. The settings on record: human, Jurkat cells (CD4+ T cell line), 1000 nM, four hours of incubation, read-out: treated cells non viable (tryphan blue staining). The method, then: Panel A, Jurkat cells (a CD^4+ T cell line) were grown in RPMI 1640 and 10% (v/v) fetal bovine serum. Cells (10^6 cells per ml) were treated (+) or not (−) with 1000 nM SYRAPRO-2000. Cell viability was then determined by counting the cells following tryphan blue staining after 1, 2 and 4 hours of incubation. Panel B, Following treatment with SYRAPRO-2000 for 1, 2 and 4 hours as indicated, Jurkat cells (10^6/ml) were washed with RPMI plus 2% fetal bovine serum and then deposited onto glass slides by cytospinning. Phase contrast images were then obtained with white light emission on a Zeiss Axioplan 2 imaging universal microscope (Thornwood, N.Y.). […]
Jurkat cells are grown in RPMI 1680 medium supplemented with 5% (v/v) fetal bovine serum and antibiotics and treated or not with 1 μM of SYRAPRO-2000 for 1 hour, 2 hours and 4 hours. Following treatment with SYRAPRO-2000, cell viability are then determined by counting the cells following tryphan blue staining. […]
Following treatment of cells with SYRAPRO-2000, cells were examined by phase contrast microscopy or by fluorescent microscopy following staining with FITC labeled annexin V (apoptotic cell death) and propidium iodide (oncolytic cell death). Cells were analyzed on a Zeiss Axioplan 2 imaging universal microscope (Thornwood, N.Y.). […] Green (FITC labeled annexin V) and red (propidium iodide) fluorescence images were obtained. […]

Sequence of protein phosphatase-2A1 (P67775 whole entry): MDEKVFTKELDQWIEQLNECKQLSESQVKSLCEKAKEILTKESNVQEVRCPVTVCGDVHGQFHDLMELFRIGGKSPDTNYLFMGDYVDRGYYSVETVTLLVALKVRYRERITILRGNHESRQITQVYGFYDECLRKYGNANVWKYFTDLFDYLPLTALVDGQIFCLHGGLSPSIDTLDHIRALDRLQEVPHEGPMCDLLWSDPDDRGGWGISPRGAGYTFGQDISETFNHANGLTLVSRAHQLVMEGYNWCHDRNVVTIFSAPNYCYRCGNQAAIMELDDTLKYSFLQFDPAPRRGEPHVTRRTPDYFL
Sequence of protein phosphatase-2A1 (P30153 whole entry partner): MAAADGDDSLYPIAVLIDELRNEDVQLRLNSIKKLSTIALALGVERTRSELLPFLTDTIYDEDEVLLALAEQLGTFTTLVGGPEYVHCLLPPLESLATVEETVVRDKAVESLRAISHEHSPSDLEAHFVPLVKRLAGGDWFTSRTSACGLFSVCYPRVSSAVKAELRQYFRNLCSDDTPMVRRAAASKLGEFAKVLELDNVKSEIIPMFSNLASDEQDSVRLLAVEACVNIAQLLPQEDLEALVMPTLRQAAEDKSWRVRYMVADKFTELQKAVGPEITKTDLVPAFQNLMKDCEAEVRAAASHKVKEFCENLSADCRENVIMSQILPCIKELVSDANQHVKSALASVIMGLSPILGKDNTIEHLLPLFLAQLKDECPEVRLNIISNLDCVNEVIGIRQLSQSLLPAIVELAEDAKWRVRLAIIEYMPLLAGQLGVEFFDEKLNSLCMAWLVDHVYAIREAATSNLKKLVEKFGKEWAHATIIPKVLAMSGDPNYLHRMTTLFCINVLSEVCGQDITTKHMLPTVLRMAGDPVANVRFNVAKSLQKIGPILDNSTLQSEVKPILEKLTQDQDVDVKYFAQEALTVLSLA
Sequence of protein phosphatase-2A1 (P63151 whole entry partner): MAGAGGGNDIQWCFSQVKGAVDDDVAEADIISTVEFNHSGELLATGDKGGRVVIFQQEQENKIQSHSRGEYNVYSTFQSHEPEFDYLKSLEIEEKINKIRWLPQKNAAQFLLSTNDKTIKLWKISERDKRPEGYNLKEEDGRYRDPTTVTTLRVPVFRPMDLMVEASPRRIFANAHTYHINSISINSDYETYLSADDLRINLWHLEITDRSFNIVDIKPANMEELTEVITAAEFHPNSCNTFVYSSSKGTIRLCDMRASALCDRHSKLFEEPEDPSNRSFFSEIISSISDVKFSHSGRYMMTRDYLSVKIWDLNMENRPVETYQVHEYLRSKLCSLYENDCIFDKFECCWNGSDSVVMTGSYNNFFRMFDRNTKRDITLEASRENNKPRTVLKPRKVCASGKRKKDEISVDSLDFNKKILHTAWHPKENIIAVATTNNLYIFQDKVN

Regarding `CC[C@H](C)[C@H](NC(=O)[C@H](CCCNC(=N)N)NC(=O)[C@H](CO)NC(=O)[C@H](Cc1c[nH]cn1)NC(=O)[C@H](CCCNC(=N)N)NC(=O)[C@H](CS)NC(=O)CNC(=O)[C@@H](NC(=O)[C@H](CCCNC(=N)N)NC(=O)[C@H](Cc1ccccc1)NC(=O)[C@@H](N)Cc1c[nH]cn1)[C@@H](C)CC)C(=O)NCC(=O)N[C@H](C(=O)N[C@H](C(=O)N[C@@H](CCCNC(=N)N)C(=O)N[C@@H](CCC(N)=O)C(=O)N[C@@H](CCCNC(=N)N)C(=O)N[C@@H](CCCNC(=N)N)C(=O)N[C@@H](C)C(=O)N[C@@H](CCCNC(=N)N)C(=O)N[C@@H](CC(N)=O)C(=O)NCC(=O)N[C@@H](C)C(=O)N[C@@H](CO)C(=O)N[C@@H](CCCNC(=N)N)C(=O)N[C@@H](CO)C(=O)O)[C@@H](C)O)C(C)C` [SYRAPRO-2000], the “activity of protein phosphatase-2A1 in intact cells” value on protein phosphatase-2A1 is recorded as “became activated”. For the same molecule, the cytotoxicity at 4 h, 1 µM in series [1] was around 60%.

The values above are taken from patent US20060252683A1, “Preparation of a peptide compound (SYRAPRO-2000) and its use for the activation of protein phosphatase-2A1 enzyme” (priority 2005, published 2006).
